Consider four compounds from patent US20260242402A1, “PRODRUGS OF STAT3 INHIBITORS” (Tvardi Operating Company, Inc., priority 2022, published 2026).

A short description of series [1]: physchem. Particulars: buffer, pH 7.4.
The nature of a further series: in vitro. The following applies: human, plasma.
The conditions of series [2]: male, SD, rat, in vivo, po.
The conditions of series [3]: male, cynomolgus monkey, in vivo, po.
Series [4] is described as follows: physchem. The following applies: thermodynamic from solid.
Assay in series [5]: not given
This is another data set of the same source.

The nature of another series: in vivo. The following applies: rat.
The nature of series [6]: Solubility of TTI-101 as described in the text. The format is physicochemical. Particulars: aqueous solutions.
Series [7] is described as follows: Pharmacokinetics in monkeys (TTI-101 in plasma by LC-MS/MS). Particulars: male, cynomolgus monkey, iv, 26 mg/kg.
The mark [8] stands for this setting: pH 2, aqueous buffer, Solubility (pH = 2.0).

The term half-life denotes the time in which the quantity being followed falls by half. The low end stands for rapid decline, the high end for slow decline. As a reminder, the Tmax is the time from dosing to the highest level. Usually solubility stands for how much of the substance goes into solution per volume. High values mean a readily soluble substance, low ones a poorly soluble substance. A word on the AUC(0-t): it is the area under the concentration-time curve up to a stated or last time point. Read a low AUC(0-t) as low exposure. A word on the bioavailability: it is the share of a dose that reaches the circulation, judged against a reference dose that is usually intravenous. A higher bioavailability goes with good availability.

The structures appear in SMILES notation. Values after ≈ are worked out from the molar mass of the structure shown. Structures can show the parent of a compound that is named as a salt. Where two headings read alike, the source gives them in different places.

For `CNCCCN(C)C(=O)Oc1c(-c2c(O)ccc3ccccc23)cc(NS(=O)(=O)c2ccc(OC)cc2)c2ccccc12` [Compound 4, 2-hydroxy-4′-((4-methoxyphenyl)sulfonamido)-[1,2′-binaphthalen]-1′-yl methyl(3-(methylamino)propyl)carbamate hydrochloride], the half-life at 2 µM turned out to be 1 h in the series “physchem [1]” and 4.3 min in the series “in vitro”. In addition, the “Aqueous Stability (pH = 2.0)” value (phosphate buffer pH 2.0, 37° C., up to 1440 minutes) was “Stable”. For the same compound, the “Aqueous Stability (pH = 3.5)” value (phosphate buffer pH 3.5, 37° C., up to 1440 minutes) is recorded as “Stable”. Besides, where the note is “phosphate buffer pH 7.4, 37° C., up to 1440 minutes”, the “Aqueous Stability (pH = 7.4) (in words)” value was “Unstable;”.
Turning to `COc1ccc(S(=O)(=O)Nc2cc(-c3c(O)ccc4ccccc34)c(OP(=O)(O)O)c3ccccc23)cc1` [Compound 9, 2-hydroxy-4′-((4-methoxyphenyl)sulfonamido)-[1,2′-binaphthalen]-1′-yl dihydrogen phosphate], the “F % (bioavailability, calculated on dose levels)” value is recorded as 58.5% in series [2] and 81.3% in series [3]. The figures for the T1/2 in [2] and in [3] were 2.0 ± 0.4 h and 6.7 ± 1.4 h, respectively. Further, the Tmax in [2] is given as 1.8 ± 1.7 h; in series [3] it was 1.7 ± 0.6 h. The values for the AUClast in [2] (22.4 mg/kg) and in series [3] (24.3 mg/kg) were 37775 ± 14217 ng·h/mL and 75704 ± 14050 ng·h/mL, respectively. In addition, the “Aqueous Stability (pH = 2.0)” value (pH 2) is “Stable”. Also, for the setting “pH 3.5”, the “Aqueous Stability (pH = 3.5)” value is given as “Stable”. The “Aqueous Stability (pH = 7.4) (in words)” value (pH 7.4) is given as “Stable”. For the same compound, the solubility in the series “physchem [4]” (setting [8]) turned out to be 1530 µg/mL; in “physchem [4]” (pH 7.4, aqueous buffer, Solubility (pH = 7.4)) it was 6160 µg/mL.
Consider `COc1ccc(S(=O)(=O)Nc2cc3c(c4ccccc24)OP(=O)(O)Oc2ccc4ccccc4c2-3)cc1` [Compound 9A, N-((6)-6-hydroxy-6-oxidodinaphtho[1,2-d:1′,2′-f][1,3,2]dioxaphosphepin-15-yl)-4-methoxybenzenesulfonamide], for which the “Solubility (pH = 7.4)” value in series [5] was 37, 12 ug/mL. In series [3], the “F % (bioavailability, calculated on dose levels)” value is 6.7% and the Tmax is 8.0 ± 0 h. Also, the AUClast in [3] (53.5 mg/kg) was 5203 + 1048 ng*h/mL. Further, under “pH 2”, the “Aqueous Stability (pH = 2.0)” value is “Stable”. The “Aqueous Stability (pH = 3.5)” value (pH 3.5) is given as “Stable”. Moreover, the “Aqueous Stability (pH = 7.4) (in words)” value (pH 7.4) is given as “Stable”. In the series “physchem [4]” (setting [8]), the solubility is 56 µg/mL (≈ 105 µM).
In “in vivo” (male, SD, iv, 21.5 mg/kg), `COc1ccc(S(=O)(=O)Nc2cc(-c3c(O)ccc4ccccc34)c(O)c3ccccc23)cc1` [TTI-101, N-(1′,2-dihydroxy-[1,2′-binaphthalen]-4′-yl)-4-methoxybenzenesulfonamide] showed an AUC(0-t) of 72400 ± 15100 ng·h/mL and a half-life of 2.8 ± 0.6 h. This compound also gave a bioavailability in “in vivo” (po) of 40.4%. For the same compound, in series [6], the “Solubility (in words)” value is “insoluble in aqueous solutions”. In addition, in series [7], the AUC(0-t) stood at 116000 ± 7170 ng·h/mL and the half-life is 2.4 ± 0.1 h.
